Laboratory results: patent USRE48335E1, “Polymyxin derivatives as antimicrobial compounds” (priority 2014, dated 2020)
Values after ≈ are worked out from the molar mass of the structure shown. Positions of bridges follow the written chain, without caps; N, C: chain ends. Non-standard residues stand in square brackets, D forms with d. Residues, ends and D or L forms follow the SMILES beside them. *: point of attachment. Phenylacetyl(3-Cl) = O=C(Cc1cccc(Cl)c1)*; Benzoyl(2,3-Cl2) = O=C(c1cccc(Cl)c1Cl)*; Benzoyl(3-Cl) = O=C(c1cccc(Cl)c1)*; X23 = O=C(c1c(Cl)cc(Cl)cc1Cl)*; Dab = NCC[C@H](N)C(=O)O; Abu = CC[C@H](N)C(=O)O; Dap = NC[C@H](N)C(=O)O; PhAc = O=C(Cc1ccccc1)*

Assays:
[1] = system: Acinetobacter baumannii; conditions: for Minimum inhibitory concentration, Ab A ATCC 17978: Acinetobacter baumannii ATCC 17978; for Minimum inhibitory concentration, Ab A ATCC 17978 / Minimum inhibitory concentration, Ab ATCC 19606 / Minimum inhibitory concentration, Ab FADDI-AB034: broth microdilution in CAMHB; for Minimum inhibitory concentration, Ab ATCC 19606: Acinetobacter baumannii ATCC 19606; for Minimum inhibitory concentration, Ab FADDI-AB034: Acinetobacter baumannii FADDI-AB034; for MIC: A. baumannii ATCC 19606
Outline: (§1)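 Read-out is the MIC, obtained by broth microdilution under CLSI guidance. Lipopeptides (TFA salt form) were diluted in cation-adjusted Mueller-Hinton broth, with polymyxin B sulphate run alongside as control.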

[2] = system: Enterobacter cloacae; conditions: broth microdilution in CAMHB; for Minimum inhibitory concentration, Ec FADDI-EC001: Enterobacter cloacae FADDI-EC001; for Minimum inhibitory concentration, Ec FADDI-EC003: Enterobacter cloacae FADDI-EC003; for Minimum inhibitory concentration, Ec FADDI-EC006: Enterobacter cloacae FADDI-EC006
Outline: as §1

[3] = system: Pseudomonas aeruginosa; conditions: for Minimum inhibitory concentration, Pa ATCC 27853: Pseudomonas aeruginosa ATCC 27853; for Minimum inhibitory concentration, Pa ATCC 27853 / Minimum inhibitory concentration, Pa FADDI-PA022 / Minimum inhibitory concentration, Pa FADDI-PA025: broth microdilution in CAMHB; for Minimum inhibitory concentration, Pa FADDI-PA022: Pseudomonas aeruginosa FADDI-PA022; for Minimum inhibitory concentration, Pa FADDI-PA025: Pseudomonas aeruginosa FADDI-PA025; for MIC: P. aeruginosa ATCC 27853
Outline: as §1

[4] = Nephrotoxicity in a mouse model (kidney histology score); format: in vivo; design: key to Max Overall Kidney Histology Score: product of % score and grade score (grade 1-3); 30 to <45 = moderate; conditions: mice, subcutaneous 12 mg base/kg, 6 doses in one day every 2 h; for Max Overall Kidney Histology Score: kidney ~20 h after last dose, product of percentage score and grade score; for Max Kidney Histology Score: semiquantitative score (SQS) 0 to +5
Method: PMB sulphate (Batch 20120204) and colistin sulphate (Batch 20120719) were supplied by Betapharma (Shanghai Co., Ltd, China). […] At ˜20 h after the last dose, mice were euthanised by inhalation of an overdose of isoflurane. […] The formalin-fixed kidneys were then sent to the Australian Phenomics Network-Histopathology and Organ Pathology (The University of Melbourne, Parkville, VIC, Australia) for histological examination. The samples were examined by a pathologist who was blind to the treatment groups. Lesions were rated as follows: mild acute tubular damage with tubular dilation, prominent nuclei and a few pale […] tubular casts (Grade 1); severe acute tubular damage with necrosis of tubular epithelial cells and numerous tubular casts (Grade 2); acute cortical necrosis/infarction of tubules and glomeruli with or without papillary necrosis (Grade 3). […] The overall kidney histology score was calculated as the product of percentage score and grade score. […] These scores were assigned as follows: […] SQS+3=moderate damage (overall score, 30 to <45); […]

[5] = system: Klebsiella pneumoniae; conditions: K. pneumoniae FADDI-KP032
Outline: as §1

[6] = system: P. aeruginosa ATCC 27853; test: In vivo efficacy in mouse blood infection model (neutropenic Swiss mice); conditions: compound, free base 4 mg/kg intravenously 2 h after inoculation, blood at 4 h
Outline: (§2)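 Neutropenic Swiss mice (cyclophosphamide 150 mg/kg day −4, 100 mg/kg day −1, i.p.) infected i.v. with early log-phase bacteria; 4 mg/kg free base i.v. given 2 h post-inoculation. Blood CFU by cardiac puncture 4 h post-dose; Δlog10 CFU/mL treated versus saline controls.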

[7] = system: A. baumannii ATCC 19606; test: as above; conditions: compound, free base 4 mg/kg intravenously 2 h after inoculation, blood at 4 h
Outline: as §2

Molecule | Minimum inhibitory concentration, Ab A ATCC 17978 [1] [mg/L] | Minimum inhibitory concentration, Ab ATCC 19606 [1] [mg/L] | Minimum inhibitory concentration, Ab FADDI-AB034 [1] [mg/L] | Minimum inhibitory concentration, Ec FADDI-EC001 [2] [mg/L] | Minimum inhibitory concentration, Ec FADDI-EC003 [2] [mg/L] | Minimum inhibitory concentration, Ec FADDI-EC006 [2] [mg/L] | Minimum inhibitory concentration, Pa ATCC 27853 [3] [mg/L] | Minimum inhibitory concentration, Pa FADDI-PA022 [3] [mg/L] | Minimum inhibitory concentration, Pa FADDI-PA025 [3] [mg/L] | Max Overall Kidney Histology Score [4] | Max Kidney Histology Score [4] | MIC [1] [mg/L] | MIC [5] [mg/L] | MIC [3] [mg/L] | Δ log (Treated-Control at 4 h) [6] [log10 CFU/mL] | Δ log (Treated-Control at 4 h) [7] [log10 CFU/mL] | nephrotoxicity in the in vivo nephrotoxicity model ([4]; kidney histology ~20 h after last dose)
CC[C@@H]1NC(=O)[C@@H](CC(C)C)NC(=O)[C@H](CCN)NC(=O)[C@@H](NC(=O)[C@H](CN)NC(=O)[C@@H](NC(=O)[C@H](CCN)NC(=O)Cc2ccccc2)[C@@H](C)O)CCNC(=O)[C@H]([C@@H](C)O)NC(=O)[C@H](CCN)NC(=O)[C@H](CCN)NC1=O [Compound 78] (PhAc-[Dab]T[Dap][Dab][Dab][dL][Abu][Dab][Dab]T; lactam 4-C) | 2 (≈ 1.81 µM) | 4 (≈ 3.62 µM) | 2 (≈ 1.81 µM) | 0.25 (≈ 0.226 µM) | 0.25 (≈ 0.226 µM) | 0.5 (≈ 0.452 µM) | 1 (≈ 0.905 µM) | 0.5 (≈ 0.452 µM) | 4 (≈ 3.62 µM) | 0.0 | 0 (SQS 0=no significant change (overall score, <1)) | – | – | – | – | – | –
CC[C@@H]1NC(=O)[C@@H](CC(C)C)NC(=O)[C@H](CCN)NC(=O)[C@@H](NC(=O)[C@H](CN)NC(=O)[C@@H](NC(=O)[C@H](CCN)NC(=O)Cc2cccc(Cl)c2)[C@@H](C)O)CCNC(=O)[C@H]([C@@H](C)O)NC(=O)[C@H](CCN)NC(=O)[C@H](CCN)NC1=O [Compound 79] ({Phenylacetyl(3-Cl)}-[Dab]T[Dap][Dab][Dab][dL][Abu][Dab][Dab]T; lactam 4-C) | 0.5 (≈ 0.439 µM) | 1 (≈ 0.877 µM) | 1 (≈ 0.877 µM) | 0.25 (≈ 0.219 µM) | <0.125 | 2 (≈ 1.75 µM) | 0.5 (≈ 0.439 µM) | 1 (≈ 0.877 µM) | 1 (≈ 0.877 µM) | 5.0 | +1 (SQS+1=mild damage (overall score, 1 to <15)) | 1 (≈ 0.877 µM) | <0.125 | 0.5 (≈ 0.439 µM) | −2.28 | – | –
CC[C@@H]1NC(=O)[C@@H](CC(C)C)NC(=O)[C@H](CCN)NC(=O)[C@@H](NC(=O)[C@H](CN)NC(=O)[C@@H](NC(=O)[C@H](CCN)NC(=O)c2cccc(Cl)c2)[C@@H](C)O)CCNC(=O)[C@H]([C@@H](C)O)NC(=O)[C@H](CCN)NC(=O)[C@H](CCN)NC1=O [Compound 88] ({Benzoyl(3-Cl)}-[Dab]T[Dap][Dab][Dab][dL][Abu][Dab][Dab]T; lactam 4-C) | 0.5 (≈ 0.444 µM) | 2 (≈ 1.78 µM) | 0.5 (≈ 0.444 µM) | 1 (≈ 0.888 µM) | 0.25 (≈ 0.222 µM) | 0.5 (≈ 0.444 µM) | 0.5 (≈ 0.444 µM) | 1 (≈ 0.888 µM) | 2 (≈ 1.78 µM) | 0.0 | 0 (SQS 0=no significant change (overall score, <1)) | 2 (≈ 1.78 µM) | 0.5 (≈ 0.444 µM) | 0.5 (≈ 0.444 µM) | −3.33 | −2.46 | –
CC[C@@H]1NC(=O)[C@@H](CC(C)C)NC(=O)[C@H](CCN)NC(=O)[C@@H](NC(=O)[C@H](CN)NC(=O)[C@@H](NC(=O)[C@H](CCN)NC(=O)c2cccc(Cl)c2Cl)[C@@H](C)O)CCNC(=O)[C@H]([C@@H](C)O)NC(=O)[C@H](CCN)NC(=O)[C@H](CCN)NC1=O [Compound 90] ({Benzoyl(2,3-Cl2)}-[Dab]T[Dap][Dab][Dab][dL][Abu][Dab][Dab]T; lactam 4-C) | 1 (≈ 0.862 µM) | 2 (≈ 1.72 µM) | 8 (≈ 6.9 µM) | 0.5 (≈ 0.431 µM) | 8 (≈ 6.9 µM) | 0.25 (≈ 0.215 µM) | 0.5 (≈ 0.431 µM) | 2 (≈ 1.72 µM) | 2 (≈ 1.72 µM) | 0.0 | 0 (SQS 0=no significant change (overall score, <1)) | – | – | – | – | – | –
CC[C@@H]1NC(=O)[C@@H](CC(C)C)NC(=O)[C@H](CCN)NC(=O)[C@@H](NC(=O)[C@H](CN)NC(=O)[C@@H](NC(=O)[C@H](CCN)NC(=O)c2c(Cl)cc(Cl)cc2Cl)[C@@H](C)O)CCNC(=O)[C@H]([C@@H](C)O)NC(=O)[C@H](CCN)NC(=O)[C@H](CCN)NC1=O [Compound 95] (X23-[Dab]T[Dap][Dab][Dab][dL][Abu][Dab][Dab]T; lactam 4-C) | 0.25 (≈ 0.209 µM) | 0.25 (≈ 0.209 µM) | 0.25 (≈ 0.209 µM) | <0.125 | 0.25 (≈ 0.209 µM) | 1 (≈ 0.837 µM) | 2 (≈ 1.67 µM) | 4 (≈ 3.35 µM) | 2 (≈ 1.67 µM) | 0.0 | 0 (SQS 0=no significant change (overall score, <1)) | – | – | – | – | – | –
polymyxin B [reference compound] | 1 | 1 | 0.5 | 0.25 | 0.5 | 0.5 | 1 | 1 | 1 | 60.0 | +5 (SQS+5=severe damage (overall score, >60)) | – | – | – | – | – | severe nephrotoxicity
